Laboratory results: article PMC12040169 (PLOS Biology, 2025)

Test: in vitro
Details: human, hela cells, % viability

SMILES | viability at 28.5 h, 10 µM [%]
CCc1ccc(CN(C(=O)c2cc(OC)c(OC)c(OC)c2)C2CCS(=O)(=O)C2)cc1 (stereo not shown) [CBK293961] | 98.4
O=C(CC1(O)C(=O)N(Cc2ccccc2)c2ccccc21)c1cc2ccccc2oc1=O (stereo not shown) [CBK293963] | 106
CC1=CC(C)C(C(=O)O)C(C(=O)NCc2cccnc2)C1 (stereo not shown) [CBK293964] | 113
COc1ccc(S(=O)(=O)N2Cc3ccccc3CC2C(=O)Nc2ccc(O)cc2)cc1OC (stereo not shown) [CBK293967] | 90.9
O=C1CC(C(=O)Nc2cccc(C(=O)O)c2)C(c2ccccc2)O1 (stereo not shown) [CBK293968] | 87.1
CC(C)(C)c1ccc(OCC(O)Cn2c(CO)nc3ccccc32)cc1 (stereo not shown) [CBK293973] | 81.7
CC(C)CC(Nc1ncnc2c1oc1ccccc12)C(=O)O (stereo not shown) [CBK293974] | 100
O=C(CC1(O)C(=O)N(CCc2ccccc2)c2ccc(Br)cc21)c1ccncc1 (stereo not shown) [CBK293976] | 90.2
O=C(CSc1nc2ccccc2nc1N1CCCC1)N1CCN(c2ccccc2)CC1 [CBK293977] | 86.5
COc1cc(C2CC(=O)Nc3nc(N)[nH]c(=O)c32)ccc1OCc1ccc(F)cc1 (stereo not shown) [CBK293980] | 84.8
O=C(Nc1ccc(Oc2ccccc2)cc1)c1cc([N+](=O)[O-])cc2cn[nH]c12 [CBK293985] | 82.5
Cc1nc2ccc(NC(=O)CC(c3ccccc3)c3ccccc3)cc2s1 [CBK293988] | 90
CC(C)Sc1nnc(N2C(N)=C(C#N)C(c3cccs3)C3=C2CCCC3=O)s1 (stereo not shown) [CBK293989] | 82.8
Cc1nc([N+](=O)[O-])c(C(=O)OCc2ccccc2C#N)n1C [CBK293991] | 82.1
COc1ccc(N2C(N)=C(C#N)C(c3cccc(OC(C)C)c3)C3=C2CCS3(=O)=O)cc1 (stereo not shown) [CBK293992] | 85.6
COC(=O)C1=C(C)OC(n2cccc2)=C(C#N)C1c1cc(OC)c(O)c(OC)c1 (stereo not shown) [CBK293994] | 101
CCOC(=O)c1noc2nc(C)n(Cc3nc(-c4ccccc4)oc3C)c(=O)c12 [CBK294400] | 89.6
CC1CCc2nc3ncn(CC(=O)NC4CC4)c(=O)c3cc2C1 (stereo not shown) [CBK294401] | 88.3
CCOC(=O)Cn1cnc2nc3c(cc2c1=O)CC(C)CC3 (stereo not shown) [CBK294402] | 90.6
Cc1ccc(COc2cc(C(=O)NCc3ccccn3)c3ccccc3n2)cc1 [CBK294403] | 112
Cc1csc(NC(=O)CSc2nnc3[nH]c(=O)cc(C)n23)n1 [CBK294413] | 81.7
Cc1csc(NC(=O)c2cccn(Cc3cccc([N+](=O)[O-])c3)c2=O)n1 [CBK294414] | 87.4

SMILES | viability at 28.5 h, 10 µM [%]
O=C(C1COc2ccccc2O1)N(Cc1cccnc1)c1nc2c(F)cccc2s1 (stereo not shown) [CBK294421] | 91
COc1ccc2sc(N(Cc3cccnc3)C(=O)C3COc4ccccc4O3)nc2c1 (stereo not shown) [CBK294424] | 107
CC(=O)c1cccc(NC(=O)c2cccn(Cc3ccc(C)cc3)c2=O)c1 [CBK294427] | 114
COc1ccc(CNC(=O)c2sc3ncnc(N(C)C4CCCCC4)c3c2C)cc1 [CBK294431] | 78.9
CSc1ccc(CNC(=O)c2sc3nc(C)nc(N4CCCC4)c3c2C)cc1 [CBK294432] | 96.8
CCc1nc(-c2ccc(C)c(S(=O)(=O)N3CCN(c4ccccc4)CC3)c2)no1 [CBK294434] | 98.3
CCc1cccc(-n2nc(C)c3c2NC(=O)CC3C(=O)c2ccc(CC)s2)c1 (stereo not shown) [CBK294435] | 113
Cc1nn(-c2ccccc2)c2c1C(C(=O)c1ccc3c(c1)OCO3)CC(=O)N2 (stereo not shown) [CBK294436] | 86.1
O=C1CC(C(=O)Nc2ccc(Cl)cc2)c2c(nc(SCc3ccccc3F)[nH]c2=O)N1 (stereo not shown) [CBK294437] | 93.6
O=C1CC(c2cc(Br)ccc2F)c2scc(-c3ccccc3F)c2N1 (stereo not shown) [CBK294440] | 86.4
NC(=O)COc1ccc(C2CC(=O)Nc3c(-c4cccc(F)c4)csc32)cc1 (stereo not shown) [CBK294441] | 99.6
CC(=O)Nc1ccc(N2C(=O)CSC2c2ccccc2[N+](=O)[O-])cc1 (stereo not shown) [CBK294443] | 110
CCCn1c(=S)[nH]c2cc(C(=O)NCCc3ccc(Cl)cc3)ccc2c1=O [CBK294445] | 88.6
CCOC(=O)N1CCC(NC(=O)c2ccc3nc4ccccc4c(=O)n3c2)CC1 [CBK294447] | 81.1
COc1ccc(CCNc2ncnc3c2cnn3-c2ccc(C)cc2C)cc1OC [CBK294448] | 88.2
O=C(NCCN1CCOCC1)c1cc(-c2ccc(F)cc2)nc2ccc(Br)cc12 [CBK294450] | 89.9
O=C(NCc1ccc(Cl)cc1)c1cc(-c2ccc(F)cc2)nc2ccccc12 [CBK294451] | 111
O=C(c1ccc(SCc2cccnc2)c([N+](=O)[O-])c1)N1CCCCC1 [CBK294452] | 98.8
Cc1cccc(-n2cnc3cc(C(=O)NCc4cccnc4)ccc32)c1 [CBK294455] | 77.5
CCOc1ccc(NC(=O)Cn2c3c(c(-c4ccccc4)cc2=O)CCCC3)cc1 [CBK294457] | 85.8
COc1ccc(-c2cc(C(=O)NC3CCCCC3C)c3ccccc3n2)cc1 (stereo not shown) [CBK294459] | 107
Cc1nc2nc(SCc3cc(=O)n4ccccc4n3)nn2c(C)c1Cc1ccccc1 [CBK294460] | 89.9

SMILES | viability at 28.5 h, 10 µM [%]
O=C1N(CN2CCN(c3cccc(C(F)(F)F)c3)CC2)c2ccccc2C12OCCCO2 [CBK294461] | 99
CC(C)N(C)C1CCN(S(=O)(=O)c2cccc([N+](=O)[O-])c2)CC1 [CBK294462] | 88.7
CCN(CCCNC(=O)c1cc(-c2cccnc2)nc2ccccc12)c1cccc(C)c1 [CBK294465] | 86.7
CC(=O)Nc1cc(C(=O)NCc2ccc(F)cc2)ccc1Sc1ccc(Cl)cc1 [CBK294468] | 96.2
O=C(CCN1C(=O)COc2ccccc21)NCCCN1CCN(c2ccccc2F)CC1 [CBK294469] | 102
CCC(C)NC(=O)C1CCC(=O)N1Cc1ccc(C)cc1 (stereo not shown) [CBK294470] | 90
COCCN(C(=S)Nc1ccc(OC)cc1)C(C)c1cccnc1 (stereo not shown) [CBK294471] | 83.7
COCCN(C(=S)Nc1ccc(C)cc1Cl)C(C)c1cccnc1 (stereo not shown) [CBK294472] | 91.1
CCOc1ccc(CNc2sc3c(c2C(=O)Nc2ccc(OC)cc2)CCC3)cc1 [CBK294473] | 80.6
COc1ccc(C2CC(c3cccc(Br)c3)Nc3ncnn32)cc1OC (stereo not shown) [CBK294474] | 82.7
COc1ccc(-c2nnc(SCC(=O)Nc3cc(C(C)(C)C)no3)n2C2CCCCC2)cc1OC [CBK295131] | 105
CCCn1c(SCC(=O)N(C)Cc2ccc(OCC)cc2)n[nH]c1=O [CBK295132] | 90
CCCCCC(=O)Nc1ccc(C(=O)CSc2nnc(-c3ccco3)o2)cc1 [CBK295134] | 84
O=C(CSc1nnc(-c2ccco2)o1)N1CCN(CC(=O)N2CCCC2)CC1 [CBK295136] | 111
COc1ccc(NC(=O)c2ccc(-c3nnn[nH]3)cc2)cc1OC [CBK295138] | 97.7
COc1ccc(NC(=O)c2ccc(-c3nnn[nH]3)cc2)cc1Cl [CBK295139] | 114
CCCn1c(SCc2csc(COc3ccc(Cl)cc3)n2)n[nH]c1=O [CBK295140] | 82.3
O=C(CNC(=O)c1ccco1)Nc1cccc(-c2nc3ccccc3s2)c1 [CBK295142] | 85.4
CC(=O)Nc1cc(C(=O)CSc2nnnn2-c2ccc(C)c(C)c2)ccc1O [CBK295143] | 90.9
CCOc1ccccc1OCCCOc1ccc(C(=O)O)cc1 [CBK295144] | 110
O=C(c1cnn(C(=O)c2ccc3c(=O)n4c(nc3c2)CCC4)c1)c1ccccc1O [CBK295145] | 95.7
CC(NC(=O)Cc1ccc(-c2ccccc2)cc1)c1cccnc1 (stereo not shown) [CBK295147] | 95

SMILES | viability at 28.5 h, 10 µM [%]
CCOC(=O)c1sc(NC(=O)CCNC(=O)c2ccccc2C(=O)O)c(C#N)c1C [CBK295152] | 96.1
CCc1cccc2c(C=C3C(=O)N(CC(=O)O)C(=O)c4ccccc43)c[nH]c12 [CBK295153] | 81.5
Cc1ccc2[nH]c(-c3ccccc3NC(=O)CCCC(=O)O)nc2c1 [CBK295154] | 86
O=C(O)Cc1csc(SCc2cc(F)cc3c2OC(c2ccccc2)OC3)n1 (stereo not shown) [CBK295158] | 107
NC(=O)C1CN(C(=O)CN2CCCc3ccccc32)c2ccccc2O1 (stereo not shown) [CBK295163] | 93.4
O=C(CCc1cccnc1)Nc1ccc(Oc2ccccc2)cc1 [CBK295168] | 99.8
Cc1cc(C(=O)Nc2ccc(S(=O)(=O)N3CC(C)OC(C)C3)cc2)c2ccccc2n1 (stereo not shown) [CBK295170] | 87.4
O=C(O)CCC(NC(=O)c1ccc(-c2ccc(Cl)cc2)s1)C(=O)O (stereo not shown) [CBK295171] | 92.9
O=C(O)CCC(NC(=O)c1ccc(-c2ccc(F)cc2)s1)C(=O)O (stereo not shown) [CBK295172] | 102
CC(C)Cn1c(SCC(=O)N2CCNC2=O)nnc1-c1ccco1 [CBK295175] | 106
O=C(Nc1ccc(Cl)c(S(=O)(=O)N2CCCC2)c1)c1cnccn1 [CBK295176] | 87.9
Cc1cc(C(=O)CSc2nnc(C(C)C)n2Cc2ccco2)c(C)n1C [CBK295178] | 81.9
Nc1nnc(SCC(=O)N(Cc2ccccc2F)C2CC2)s1 [CBK295179] | 84.3
Cc1nn(Cc2ccc(F)cc2)c2sc(C(=O)NCc3ccc(S(N)(=O)=O)cc3)cc12 [CBK295181] | 87
COc1ccc(C2(C)NC(=O)N(CC(=O)Nc3ccc(NC(C)=O)cc3)C2=O)cc1 (stereo not shown) [CBK295182] | 106
Cc1ccc(CNC(=O)C2CC(=O)N(c3cccc(C)c3C)C2)cc1 (stereo not shown) [CBK295183] | 97.5
CN(CC(=O)NCc1ccc2c(c1)OCO2)Cc1ccc(Br)s1 [CBK295185] | 80.4
CCN(CC)C(=O)c1ccc(NC(=O)CSc2n[nH]c(=O)n2CC2CCCO2)cc1 (stereo not shown) [CBK295186] | 77.6
O=C(C1CN(Cc2nc3ccsc3c(=O)[nH]2)c2ccccc2O1)N1CCOCC1 (stereo not shown) [CBK295189] | 109
